This experiment deals with SARS-CoV-2 spike protein active trimer. The class given is binding.

Non-standard residues stand in square brackets, D forms with d. Residues, ends and D or L forms follow the SMILES beside them. *: point of attachment. Biotin = O=C1N[C@H]2[C@H](CS[C@H]2CCCCC(=O)*)N1; Phe(3,5-F2) = N[C@@H](Cc1cc(F)cc(F)c1)C(=O)O; hCit = NC(=O)NCCCC[C@H](N)C(=O)O; Aad = N[C@@H](CCCC(=O)O)C(=O)O; dPhg = N[C@@H](C(=O)O)c1ccccc1; Nva = CCC[C@H](N)C(=O)O; AEEA = NCCOCCOCC(=O)O; Ac3c = NC1(C(=O)O)CC1

By Kd is commonly meant the concentration at which binding is half-saturated. A high value points to lower affinity.

Turning to `CCC[C@H](NC(=O)[C@H](CCCCNC(N)=O)NC(=O)[C@H](Cc1ccc(OC)cc1)NC(=O)[C@H](N)Cc1c[nH]cn1)C(=O)N[C@@H](CCCNC(=N)N)C(=O)N[C@@H](Cc1cc(F)cc(F)c1)C(=O)N[C@@H](Cc1ccccc1)C(=O)N[C@@H](CCCC(=O)O)C(=O)NCCOCCOCC(=O)NCCOCCOCC(=O)N[C@@H](CCCCNC(=O)CCCC[C@@H]1SC[C@@H]2NC(=O)N[C@@H]21)C(N)=O` [L10-4] (H-[dH]Y(Me)[hCit][Nva]R[Phe(3,5-F2)]F[Aad][AEEA][AEEA]K(Biotin)-NH2), the “binding to the S-protein active trimer (in words)” value (“binding … (in words)” below) is “bind reasonably well”. The molecule `CC(C)C[C@H](NC(=O)CNC(=O)[C@H](Cc1ccccc1)NC(=O)[C@@H](NC(=O)[C@@H](N)[C@@H](C)O)C(C)C)C(=O)N[C@@H](CC(N)=O)C(=O)N[C@H](C(=O)N[C@@H](Cc1c[nH]c2ccccc12)C(=O)N[C@@H](CCCCN)C(=O)N[C@@H](CCCNC(=N)N)C(=O)N[C@@H](Cc1ccc(O)cc1)C(=O)N[C@@H](CO)C(=O)N[C@@H](CCCCN)C(=O)NCCOCCOCC(=O)NCCOCCOCC(=O)N[C@@H](CCCCNC(=O)CCCC[C@@H]1SC[C@@H]2NC(=O)N[C@@H]21)C(N)=O)C(C)C` [Reference Peptide, reference compound] (H-TVFGLNVWKRYSK[AEEA][AEEA]K(Biotin)-NH2) registered a Kd of 0.079 µM. For the molecule `CCC[C@H](NC(=O)[C@H](CCCCNC(N)=O)NC(=O)[C@H](CCCNC(=N)N)NC(=O)[C@H](Cc1ccc(OC)cc1)NC(=O)[C@H](N)Cc1c[nH]cn1)C(=O)N[C@@H](CCCNC(=N)N)C(=O)N[C@@H](Cc1cc(F)cc(F)c1)C(=O)N[C@@H](Cc1ccccc1)C(=O)N[C@@H](CCCC(=O)O)C(=O)NCCOCCOCC(=O)NCCOCCOCC(=O)N[C@@H](CCCCNC(=O)CCCC[C@@H]1SC[C@@H]2NC(=O)N[C@@H]21)C(N)=O` [L10-2] (H-[dH]Y(Me)R[hCit][Nva]R[Phe(3,5-F2)]F[Aad][AEEA][AEEA]K(Biotin)-NH2), the affinity, expressed as Kd, was 0.025 µM; the “binding affinity, times higher than CoV6-2” value was 8 times; the “binding affinity, times stronger than the 13-mer reference peptide” value was roughly 3 times; the “binding … (in words)” value was “bind reasonably well”. Regarding `CCC[C@H](NC(=O)[C@H](CCC(N)=O)NC(=O)[C@@H](N)Cc1cc(F)cc(F)c1)C(=O)N[C@@H](CCCNC(=N)N)C(=O)N[C@H](CC(N)=O)C(=O)N[C@@H](CCC)C(=O)N[C@H](CC(N)=O)C(=O)NC1(C(=O)NCCOCCOCC(=O)NCCOCCOCC(=O)N[C@@H](CCCCNC(=O)CCCC[C@@H]2SC[C@@H]3NC(=O)N[C@@H]32)C(N)=O)CC1` [L10-3] (H-[Phe(3,5-F2)]Q[Nva]R[dN][Nva][dN][Ac3c][AEEA][AEEA]K(Biotin)-NH2), the “binding … (in words)” value was “bind reasonably well”. As for `COc1ccc(C[C@H](NC(=O)[C@H](N)Cc2c[nH]cn2)C(=O)N[C@@H](CCCNC(=N)N)C(=O)N[C@@H](C(=O)N[C@H](CCC(=O)O)C(=O)N[C@H](Cc2c[nH]cn2)C(=O)N[C@H](CCSC)C(=O)N[C@@H](CC(C)C)C(=O)NCCOCCOCC(=O)NCCOCCOCC(=O)N[C@@H](CCCCNC(=O)CCCC[C@@H]2SC[C@@H]3NC(=O)N[C@@H]32)C(N)=O)c2ccccc2)cc1` [L9-1] (H-[dH]Y(Me)R[dPhg][dE][dH][dM]L[AEEA][AEEA]K(Biotin)-NH2), the “binding … (in words)” value is given as “bind reasonably well”.

For the origin of these results see paper PMC10255569, “Discovery of Peptidic Ligands against the SARS-CoV-2 Spike Protein and Their Use in the Development of a Highly Sensitive Personal Use Colorimetric COVID-19 Biosensor” (ACS Sensors, 2023).
